In assay [1] the target is T1, Transient receptor potential cation channel subfamily V member 1 (Rattus norvegicus, UniProt O35433). Description: Displacement of [3H]RTX from rat TRPV1 receptor expressed in CHO cells. In kind it is cell-based. (Displacement assays read how much labelled ligand stays bound in the presence of the test substance.)
Assay [2] has as its target T1, Transient receptor potential cation channel subfamily V member 1. Description: Antagonist activity at rat TRPV1 receptor expressed in CHO cells by Ca2+ uptake assay.
Assay [3] concerns the target Transient receptor potential cation channel subfamily V member 1 (Rattus norvegicus) (UniProt O35433). Description: Agonist activity at rat TRPV1 receptor expressed in CHO cells by Ca2+ uptake assay. In kind it is functional, cell-based.

We go through eight compounds from ChEMBL document CHEMBL1143756, “Alpha-substituted N-(4-tert-butylbenzyl)-N'-[4-(methylsulfonylamino)benzyl]thiourea analogues as potent and stereospecific TRPV1 antagonists” (Bioorg Med Chem, 2007).

T1 sequence (O35433 whole entry): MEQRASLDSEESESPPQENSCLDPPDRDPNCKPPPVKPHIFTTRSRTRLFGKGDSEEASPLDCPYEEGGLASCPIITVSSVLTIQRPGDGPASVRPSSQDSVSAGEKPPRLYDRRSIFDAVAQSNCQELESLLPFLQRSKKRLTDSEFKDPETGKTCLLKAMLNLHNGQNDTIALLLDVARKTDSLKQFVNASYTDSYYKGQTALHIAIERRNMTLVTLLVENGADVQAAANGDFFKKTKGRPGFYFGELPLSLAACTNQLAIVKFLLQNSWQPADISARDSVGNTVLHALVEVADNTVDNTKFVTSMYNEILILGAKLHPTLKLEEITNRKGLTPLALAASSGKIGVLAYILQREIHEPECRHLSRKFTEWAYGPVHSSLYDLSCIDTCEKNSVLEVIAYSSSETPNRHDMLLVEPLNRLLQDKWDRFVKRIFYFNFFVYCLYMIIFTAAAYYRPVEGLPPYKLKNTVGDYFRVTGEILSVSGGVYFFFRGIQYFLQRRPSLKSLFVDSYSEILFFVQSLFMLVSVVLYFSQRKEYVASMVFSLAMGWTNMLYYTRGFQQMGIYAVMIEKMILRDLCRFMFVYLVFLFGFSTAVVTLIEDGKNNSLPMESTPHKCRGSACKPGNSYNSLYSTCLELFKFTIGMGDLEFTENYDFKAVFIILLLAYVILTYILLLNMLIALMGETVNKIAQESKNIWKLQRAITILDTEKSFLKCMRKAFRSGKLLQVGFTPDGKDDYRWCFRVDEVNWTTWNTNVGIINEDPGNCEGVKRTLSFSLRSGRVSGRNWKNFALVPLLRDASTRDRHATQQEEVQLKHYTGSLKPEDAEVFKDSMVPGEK
Chain of Transient receptor potential cation channel subfamily V member 1 (Rattus norvegicus) (O35433 whole entry): as above

`C[C@H](NC(=S)NCc1ccc(C(C)(C)C)cc1)c1ccc(NS(C)(=O)=O)c(F)c1`: the figures for the Ki in assay [1] and in assay [2] were 2140 nM and 2670 nM, respectively.
On to `CC(NC(=S)NCc1ccc(C(C)(C)C)cc1)c1ccc(NS(C)(=O)=O)cc1` (configuration not stated), for which the results for the inhibitory constant (Ki) in assay [1] and in assay [2] were 59.3 nM and 14.7 nM, respectively.
`COc1cc(CNC(=S)NCc2ccc(C(C)(C)C)cc2)ccc1NS(C)(=O)=O` displayed an Activity in assay [3] of 18%. In assay [1], this compound returned a Ki of 51 nM.
Consider `CN(C)CCCN1c2ccccc2Sc2ccc(Cl)cc21` [CHLORPROMAZINE], for which the Ki was found to be 1300 nM in assay [1] and 520 nM in assay [2].
In assay [3], `C[C@H](/N=C(\S)NCc1ccc(C(C)(C)C)cc1)c1ccc(NS(C)(=O)=O)cc1` displayed an Activity of 8%.
As for `C[C@H](NC(=S)NCc1ccc(C(C)(C)C)cc1)c1ccc(NS(C)(=O)=O)cc1`, in assay [1], the Ki amounted to 3950 nM.
`C[C@@H](NC(=S)NCc1ccc(C(C)(C)C)cc1)c1ccc(NS(C)(=O)=O)c(F)c1` gave a Ki in assay [2] of 37 nM.
For the compound `CC(C)(C)c1ccc(CNC(=S)NC(C)(C)c2ccc(NS(C)(=O)=O)cc2)cc1`, the inhibitory constant (Ki) in assay [2] stood at 1800 nM.

The Ki is the equilibrium dissociation constant of an inhibitor or competing ligand from its target. Low values mean a stronger hold on the target, high ones a looser hold on the target.
